Experimental data taken from patent US10786475B2, “Method for preventing, treating, or improving fatty liver by administering effective amounts of azelaic acid to a subject” (Korea University Research and Business Foundation, priority 2018, dated 2020).

Assays:
Hepa1c1c-7 cells = experiment: Fatty acid oxidation rate ([1-14C]palmitate) in Hepa1c1c-7 cells; assay type: cell-based, mouse; conditions: 100 μM AzA, 24 hours, compared with control group
Method: Hepa1c1c-7 cells were seeded on a 24-well plate at 5×10^5 cells/mL, cultured for 24 hours, treated with 100 μM of AzA, and then incubated for 24 hours. Afterward, [1-^14C]palmitate was accumulated, the cells were cultured for one hour, and the medium was collected to extract CO2 using NaOH and HCl, followed by measuring ^14CO2 using a liquid scintillation counter. As a positive control, GW7647 (1 μM) was used.

[1] = system: 3T3-L1 cells stimulated by LPS; experiment: GPCR 10-pathway reporter assay in LPS-induced 3T3-L1 cells; assay type: cell-based, mouse; conditions: 100 ng/mL LPS 1 hour, 50 μM AzA 6 hours
Method: 3T3-L1 cells, mouse pre-adipose cells were purchased from the Korean Cell Line Bank (Seoul, Korea). The 3T3-L1 cells were cultured in Dulbecco's modified Eagle's medium (DMEM) supplemented with 10% heat-inactivated bovine calf serum (Gibco, Grand Island, N.Y., USA) and 1% PEST under 5% CO2 at 37° C. The 3T3-L1 pre-adipose cells were seeded on a 6-well plate at 1×10^6 cells/well to differentiate into adipose cells, and cultured to a density of 100%. After 2 days, the cultured 3T3-L1 pre-adipose cells were incubated in DMEM containing 10% fetal bovine serum (FBS) and an MDI solution (0.5 mM IBMX, 0.5 μM dexamethasone and 10 μg/mL insulin) for 3 days. Subsequently, the treated cells were cultured in DMEM containing 10% FBS and 10 μg/mL insulin, and the formation of lipid droplets in cells and the degree thereof were confirmed, and based on this, the differentiation into adipose cells was confirmed.
3T3-L1 adipose cells were seeded on a 96 well-plate at 1×10^4 cells/well and cultured for 24 hours, and transfected with a construct including a transcription factor promoter and a luciferase for 8 hours. […]
To confirm a mechanism of an anti-inflammatory effect of an AzA, 10 transcription factors for signal transduction of GPCR were analyzed by the same method as described in Example 7-3.

PPARα = biological target: T1, PPARα (Mus musculus, UniProt P23204); experiment: PPRE-luciferase assay in HEK293 cells; assay type: cell-based; conditions: HEK293 cells transfected with pSG5-PPAR alpha, various concentrations of AzA
T1 construct: host or cells: HEK293 cells (Korean Cell Line Bank)
T1 sequence (P23204 1-468): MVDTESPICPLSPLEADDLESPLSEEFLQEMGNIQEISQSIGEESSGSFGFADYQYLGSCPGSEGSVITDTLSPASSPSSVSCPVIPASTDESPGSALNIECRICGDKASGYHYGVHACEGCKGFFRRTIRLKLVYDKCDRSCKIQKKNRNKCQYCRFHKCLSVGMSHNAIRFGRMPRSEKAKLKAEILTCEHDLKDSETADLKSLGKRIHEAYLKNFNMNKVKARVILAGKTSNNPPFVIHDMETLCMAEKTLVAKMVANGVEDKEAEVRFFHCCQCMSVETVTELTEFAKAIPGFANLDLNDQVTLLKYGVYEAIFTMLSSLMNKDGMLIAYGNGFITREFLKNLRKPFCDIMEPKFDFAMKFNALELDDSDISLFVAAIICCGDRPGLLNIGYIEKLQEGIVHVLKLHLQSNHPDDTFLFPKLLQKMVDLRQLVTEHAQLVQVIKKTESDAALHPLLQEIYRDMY
Method: To measure PPRE-luciferase, HEK293 cells (Korean Cell Line Bank) seeded on a 24-well plate at […] cells/well were used. pSG5-PPAR alpha (Addgene, MA, USA) was co-transfected according to a given protocol using pCMV-3×PPRE-Luc, a Renilla expression vector and Lipofectamine 2000 (Invitrogen). After 24-hour post-transfection, the cells were treated with various concentrations of an AzA, and then analyzed using a dual luciferase assay kit (Promega, Fitchburg, Wis., USA) and Victor X2 (PerkinElmer, Santa Clara, Calif.). A luciferase fluorescent signal was standardized using Renilla.

[2] = system: Hepa1c1c-7 cells stimulated by LPS; experiment: IL-6 and TNF-α cytokine concentration (ELISA) in LPS-treated Hepa1c1c-7 cells; assay type: cell-based, mouse; conditions: 50 μM AzA pretreatment 1 hour, 100 ng/mL LPS 6 hours
Method: Hepa1c1c-7 cells were cultured in a 12-well plate for 24 hours. Subsequently, the cells were pretreated with 50 μM of AzA for 1 hour, and treated with 100 ng/mL LPS for 6 hours with the AzA present. The Hepa1c1c-7 cells were lysed in a cell lysis buffer (50 mM Tris, 1% Triton-X 100, 1 mM EDTA, proteinase inhibitor), centrifuged at 13,000 rpm and 4° C. for 20 minutes, thereby obtaining a supernatant, and then the supernatant was analyzed using a Mouse IL6 ELISA kit and a Mouse TNFα ELISA kit (Thermo Scientific, IL, USA). Tumor necrosis factor-alpha (TNF-α) and interleukin-6 (IL-6) were quantified using ELISA known to those of ordinary skill in the art.

For `O=C(O)CCCCCCCC(=O)O` [AzA, nonanedioic acid], the “fatty acid oxidation rate” value (Hepa1c1c-7 cells) was “significantly increased”, the “FOXO transcription factor activity (PI-3 Kinase/AKT pathway)” value [1] was “significant activity” and the “PPARα activity (PPRE-luciferase): direct ligand for PPARα” value (PPARα) was “does not act as a direct ligand for PPARα”. For the same compound, the “expression level of the IL-6 protein” value [2] was “tendency of decrease”.
